Data on 2 compounds can be found in patent publication US4383993A, “Nasal dosage forms containing natural female sex hormones” (priority 1981, dated 1983).

A short description of data set [1]: bioavailability of 17 β-estradiol in rats via intravenous, nasal and intraduodenal/oral routes (TUE, E2, E1 in blood). The data set is classed as in vivo, Sprague-Dawley male rats. The procedure: (§1) Sprague-Dawley male rats, each weighing about 270 grams, were used in the progesterone study. For nasal administration, the rats were anesthetized using sodium pentobarbital (50 mg/kg) and the drug was administered to the nasal cavity by means of a micropipet at dosage levels of 50 μg, 100 μg and 150 μg/rat of [4-^14 C]-progesterone (~8.5 μCi/rat) in 0.1 ml of isotonic saline containing 1-2% Tween 80 as a solubilizing agent, according to the procedure described by Hirai et al, the 98th Annual Meeting of Pharmaceutical Society of Japan, Okayama, April 1978, except that the end of the tube leading from the esophagus to the nasal cavity was closed and the drug was administered to the nostrils which were then closed with an adhesive agent. For oral (intraduodenal) administration, the rats were anesthetized and the abdomen of each rat was opened through a midline incision and a 50 μg/rat dose of the drug ([4-^14 C]-progesterone in 0.1 ml isotonic saline with 1-2% Tween 80) was injected directly through the duodenum. For intravenous administration, the rats were anesthetized and the drug was injected through the femoral vein at dosage levels of 50 μg, 100 μg and 150 μg/rat of [4-^14 C]-progesterone in 0.1 ml of isotonic saline containing 1-2% Tween 80. Blood was sampled periodically from the […] after IV and nasal administration, and from the tail vein after ID administration. Blood levels of progesterone were determined by thin layer chromotography.
Sprague-Dawley male rats, each weighing approximately 270 grams, were given dosages of 5 μg, 10 μg and 20 μg/rat of [6,7-^3 H] […] Blood samples were taken periodically as described in the progesterone study and assayed for estradiol (E2), estrone (E1) and total unconjugated estrogens (TUE).

The conditions of data set [2]: by mouth; rapid metabolism in intestinal epithelium and liver; cited from earlier work.
Data set [3] can be described thus: bioavailability of progesterone in rats after intravenous, nasal and intraduodenal/oral administration. It is filed as in vivo, Sprague-Dawley male rats. The procedure:
as §1

“Also recorded” adds a separate entry of the source. Some results are limits rather than exact numbers.

Regarding `C[C@]12CC[C@@H]3c4ccc(O)cc4CC[C@H]3[C@@H]1CC[C@@H]2O` [17 β-estradiol, estra-1,3,5(10)-triene-3,17 β-diol], the “absorption by the nasal mucosa” value in data set [1] (nasal) is given as “rapidly absorbed by the nasal mucosa; also recorded: rapidly absorbed from the nasal mucosa into systemic blood without extensive intestinal or first pass metabolism”. For the same compound, the “nasal vs oral bioavailability of E2” value in data set [1] (rat, in vivo) was 13.23-21.74 times. Moreover, the “nasal vs oral bioavailability of TUE” value in data set [1] (rat, in vivo) is given as 2.26-2.83 times. The bioavailability in data set [1] (rat, in vivo, E2 bioavailability relative to corresponding IV doses) was 50.5 to 83.9%; in data set [1] (rat, in vivo, po, E2 AUC ratio vs. IV) it was 3.8%; in data set [1] (rat, in vivo, po, E2 bioavailability relative to corresponding IV doses) it was 3.1 to 5%.
For the compound `CC(=O)[C@H]1CC[C@H]2[C@@H]3CCC4=CC(=O)CC[C@]4(C)[C@H]3CC[C@]12C` [progesterone, pregn-4-ene-3,20-dione], in data set [2], the oral effectiveness entry is listed as “not effective by mouth”. Besides, the “nasal bioavailability vs oral bioavailability” value in data set [3] (50 μg dosage level) was found to be 85.75 times. For the same compound, the “area under the curve as a function of dose” value in data set [3] (IV and nasal routes, 50, 100, 150 μg, FIG. 2) is given as “directly proportional to the dose administered”. The “area under the curve, intravenous vs nasal (two tailed t-test)” value in data set [3] (at each dose) was “not significantly different, even at the 0.001 level”. For the same compound, the “absorption from the nasal mucosa” value in data set [3] (nasal) is recorded as “very rapidly absorbed from the nasal mucosa; also recorded: rapidly absorbed from the nasal mucosa into the systemic circulation without first pass metabolism; also recorded: rapidly absorbed from the nasal mucosa into systemic blood without extensive intestinal or first pass metabolism”. Moreover, the “nasal bioavailability vs intravenous bioavailability” value in data set [3] (nasal vs intravenous) is recorded as “equivalent”. For the same compound, in data set [3] (nasal vs oral), the “nasal bioavailability vs oral bioavailability (in words)” value is recorded as “vastly superior”. Also, in data set [3] (rat, in vivo), the Tmax – broadly, the time at which the peak concentration occurs – is under 7 min. In addition, the bioavailability was determined as 103% in data set [3] (rat, in vivo, iv, AUC ratio Nasal/IV) and 1.2% in data set [3] (rat, in vivo, oral bioavailability relative to equivalent IV dose).
